# System: T cell response of human PBMC to allogenic stimulation by Namalwa cells
# Assay: Mixed Lymphocyte Reaction (proliferation and IFN-γ secretion)
# Assay type: cell-based
# Details: 6 days; FIGS. 1-3
# Description: This reaction measures the T cell response to allogenic stimulation by a mismatch of class II histocompatability antigens. This is triggered through the T cell receptor and activates the T cell to secrete and proliferate in response to endogenous IL-2. IFN-γ is also made in response to this stimulation and accumulates in the culture medium. Compounds are tested for their ability to block the proliferation and response to antigenic stimulation as well as their ability to produce IFN-γ as follows. A human B cell ine expressing class II antigen, Namalwa (American Type Culture Collection), is incubated for 2 hr at 37° C. in RPMI-10 containing mitomycin C (50 μg/ml). These cells are washed four times by centrifugation and resuspension (10^6 cells/ml) in SF-RPMI medium and are added to the wells of 96-well plate (50 μl/well) as stimulators. Mitomycin treatment prevents these cells from proliferating in the assay. Fresh PBMC are prepared as described above in example 1, but are not activated with PHA. Instead they are resuspended at 10^6 cells/ml and 100 μl is added per well. Dilutions of test compounds are added (50 μl/well) to give a final volume of 200 μl and the plates are incubated for 6 days at 37° C. During the last 18 hr, ^3 H-thymidine (DuPont-NEN- 1 μCi/well) is added as a measure of cell proliferation, cultures are collected using a cell harvester (Packard), and scintillation fluid is added prior to counting in a Packard Top Count scintillation counter. A sample of medium is also collected for measurement of IFN-γ production prior to the addition of ^3 H-thymidine for use as a negative control.
compound,measurement,value
"Nc1nc2nn[nH]c2c(=O)[nH]1 [Compound 8-azaguanine, 8-azaguanine, reference compound]",inhibition of IFN-γ secretion versus cell proliferation (in words),general immunosuppressant

# Source: patent publication US5880146A, “Inhibition of IL-12-induced IFN-γ synthesis by specific bis-phenol compounds as a method of immune modulation” (Fuji ImmunoPharmaceuticals Corporation, priority 1995, dated 1999)
